Measurements from the supplement of paper PMC10307832.

Tests used:
Assay in all cases: relative viability (nuclei count vs DMSO), 5 days (fraction); higher = more cells survive
NCI-H3122 = test system: NCI-H3122
Procedure, shortened: (§1)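 Relative viability divides the nuclei count in treated wells by that in vehicle wells. Lung cancer cell lines were seeded in 1536-well plates, dosed by pin tool the next day, and fixed and stained after 5 days in one step with final 0.05% Triton X-100, 1% formaldehyde and 1 ug/ml Hoechst. Dosing was a single drug or a fixed anchor-drug dose plus five library-drug doses (not always all listed) in √10 steps, and values are medians of duplicate plates imaged at 4×.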

EMC-BAC-2 = test system: EMC-BAC-2
Procedure, shortened: as §1

NCI-H596 = test system: NCI-H596
Procedure, shortened: as §1

ABC-1 = test system: ABC-1
Procedure, shortened: as §1

NCI-H1993 = test system: NCI-H1993
Procedure, shortened: as §1

NCI-H1944 = test system: NCI-H1944
Procedure, shortened: as §1

LK-2 = test system: LK-2
Procedure, shortened: as §1

HARA = test system: HARA
Procedure, shortened: as §1

NCI-H2228 = test system: NCI-H2228
Procedure, shortened: as §1

SW 900 = test system: SW 900
Procedure, shortened: as §1

HOP-62 = test system: HOP-62
Procedure, shortened: as §1

NCI-H322M = test system: NCI-H322M
Procedure, shortened: as §1

NCI-H2170 = test system: NCI-H2170
Procedure, shortened: as §1

PC-3 [JPC-3] = test system: PC-3 [JPC-3]
Procedure, shortened: as §1

NCI-H1792 = test system: NCI-H1792
Procedure, shortened: as §1

SW 1573 = test system: SW 1573
Procedure, shortened: as §1

LXF-289 = test system: LXF-289
Procedure, shortened: as §1

NCI-H2009 = test system: NCI-H2009
Procedure, shortened: as §1

SK-MES-1 = test system: SK-MES-1
Procedure, shortened: as §1

NCI-H522 = test system: NCI-H522
Procedure, shortened: as §1

A-427 = test system: A-427
Procedure, shortened: as §1

NCI-H727 = test system: NCI-H727
Procedure, shortened: as §1

SMILES: Nc1ccn([C@@H]2O[C@H](CO)[C@@H](O)[C@@H]2O)c(=O)n1 [Cytarabine] + N=C(N)NC(=N)NCCc1ccccc1 [Phenformin] (partner 250 µM)
- relative viability (NCI-H3122; first compound 0.005 µM): 0.347
- relative viability (NCI-H3122; first compound 0.01581 µM): 0.323
- relative viability (NCI-H3122; first compound 0.05 µM): 0.293
- relative viability (NCI-H3122; first compound 0.1581 µM): 0.244
- relative viability (NCI-H3122; first compound 0.5 µM): 0.18
- relative viability (EMC-BAC-2; first compound 0.005 µM): 0.418
- relative viability (EMC-BAC-2; first compound 0.01581 µM): 0.482
- relative viability (EMC-BAC-2; first compound 0.05 µM): 0.398
- relative viability (EMC-BAC-2; first compound 0.1581 µM): 0.268
- relative viability (EMC-BAC-2; first compound 0.5 µM): 0.196
- relative viability (NCI-H596; first compound 0.005 µM): 0.801
- relative viability (NCI-H596; first compound 0.01581 µM): 0.613
- relative viability (NCI-H596; first compound 0.05 µM): 0.694
- relative viability (NCI-H596; first compound 0.1581 µM): 0.624
- relative viability (NCI-H596; first compound 0.5 µM): 0.447
- relative viability (ABC-1; first compound 0.005 µM): 0.238
- relative viability (ABC-1; first compound 0.01581 µM): 0.211
- relative viability (ABC-1; first compound 0.05 µM): 0.265
- relative viability (ABC-1; first compound 0.1581 µM): 0.223
- relative viability (ABC-1; first compound 0.5 µM): 0.174
- relative viability (NCI-H1993; first compound 0.005 µM): 0.588
- relative viability (NCI-H1993; first compound 0.01581 µM): 0.483
- relative viability (NCI-H1993; first compound 0.05 µM): 0.529
- relative viability (NCI-H1993; first compound 0.1581 µM): 0.515
- relative viability (NCI-H1993; first compound 0.5 µM): 0.422
- relative viability (NCI-H1944; first compound 0.005 µM): 0.166
- relative viability (NCI-H1944; first compound 0.01581 µM): 0.184
- relative viability (NCI-H1944; first compound 0.05 µM): 0.14
- relative viability (NCI-H1944; first compound 0.1581 µM): 0.106
- relative viability (NCI-H1944; first compound 0.5 µM): 0.103
- relative viability (LK-2; first compound 0.005 µM): 0.357
- relative viability (LK-2; first compound 0.01581 µM): 0.247
- relative viability (LK-2; first compound 0.05 µM): 0.288
- relative viability (LK-2; first compound 0.1581 µM): 0.149
- relative viability (LK-2; first compound 0.5 µM): 0.196
- relative viability (HARA; first compound 0.005 µM): 0.359
- relative viability (HARA; first compound 0.01581 µM): 0.325
- relative viability (HARA; first compound 0.05 µM): 0.296
- relative viability (HARA; first compound 0.1581 µM): 0.196
- relative viability (HARA; first compound 0.5 µM): 0.0852
- relative viability (NCI-H2228; first compound 0.005 µM): 0.25
- relative viability (NCI-H2228; first compound 0.01581 µM): 0.197
- relative viability (NCI-H2228; first compound 0.05 µM): 0.182
- relative viability (NCI-H2228; first compound 0.1581 µM): 0.118
- relative viability (NCI-H2228; first compound 0.5 µM): 0.112
- relative viability (SW 900; first compound 0.005 µM): 0.472
- relative viability (SW 900; first compound 0.01581 µM): 0.395
- relative viability (SW 900; first compound 0.05 µM): 0.367
- relative viability (SW 900; first compound 0.1581 µM): 0.18
- relative viability (SW 900; first compound 0.5 µM): 0.155
- relative viability (HOP-62; first compound 0.005 µM): 0.506
- relative viability (HOP-62; first compound 0.01581 µM): 0.486
- relative viability (HOP-62; first compound 0.05 µM): 0.399
- relative viability (HOP-62; first compound 0.1581 µM): 0.156
- relative viability (HOP-62; first compound 0.5 µM): 0.152
- relative viability (NCI-H322M; first compound 0.005 µM): 0.704
- relative viability (NCI-H322M; first compound 0.01581 µM): 0.614
- relative viability (NCI-H322M; first compound 0.05 µM): 0.53
- relative viability (NCI-H322M; first compound 0.1581 µM): 0.372
- relative viability (NCI-H322M; first compound 0.5 µM): 0.337
- relative viability (NCI-H2170; first compound 0.005 µM): 0.328
- relative viability (NCI-H2170; first compound 0.01581 µM): 0.321
- relative viability (NCI-H2170; first compound 0.05 µM): 0.25
- relative viability (NCI-H2170; first compound 0.1581 µM): 0.218
- relative viability (NCI-H2170; first compound 0.5 µM): 0.205
- relative viability (PC-3 [JPC-3]; first compound 0.005 µM): 0.493
- relative viability (PC-3 [JPC-3]; first compound 0.01581 µM): 0.468
- relative viability (PC-3 [JPC-3]; first compound 0.05 µM): 0.418
- relative viability (PC-3 [JPC-3]; first compound 0.1581 µM): 0.346
- relative viability (PC-3 [JPC-3]; first compound 0.5 µM): 0.358
- relative viability (NCI-H1792; first compound 0.01581 µM): 0.107
- relative viability (NCI-H1792; first compound 0.05 µM): 0.16
- relative viability (NCI-H1792; first compound 0.1581 µM): 0.196
- relative viability (NCI-H1792; first compound 0.5 µM): 0.133
- relative viability (SW 1573; first compound 0.005 µM): 0.342
- relative viability (SW 1573; first compound 0.01581 µM): 0.287
- relative viability (SW 1573; first compound 0.05 µM): 0.218
- relative viability (SW 1573; first compound 0.1581 µM): 0.131
- relative viability (SW 1573; first compound 0.5 µM): 0.109
- relative viability (LXF-289; first compound 0.005 µM): 0.413
- relative viability (LXF-289; first compound 0.01581 µM): 0.406
- relative viability (LXF-289; first compound 0.05 µM): 0.341
- relative viability (LXF-289; first compound 0.1581 µM): 0.129
- relative viability (LXF-289; first compound 0.5 µM): 0.0821
- relative viability (NCI-H2009; first compound 0.005 µM): 0.42
- relative viability (NCI-H2009; first compound 0.01581 µM): 0.503
- relative viability (NCI-H2009; first compound 0.05 µM): 0.455
- relative viability (NCI-H2009; first compound 0.1581 µM): 0.386
- relative viability (NCI-H2009; first compound 0.5 µM): 0.268
- relative viability (SK-MES-1; first compound 0.005 µM): 0.44
- relative viability (SK-MES-1; first compound 0.01581 µM): 0.389
- relative viability (SK-MES-1; first compound 0.05 µM): 0.212
- relative viability (SK-MES-1; first compound 0.1581 µM): 0.206
- relative viability (SK-MES-1; first compound 0.5 µM): 0.178
- relative viability (NCI-H522; first compound 0.005 µM): 0.669
- relative viability (NCI-H522; first compound 0.01581 µM): 0.602
- relative viability (NCI-H522; first compound 0.05 µM): 0.554
- relative viability (NCI-H522; first compound 0.1581 µM): 0.489
- relative viability (NCI-H522; first compound 0.5 µM): 0.449
- relative viability (A-427; first compound 0.005 µM): 0.255
- relative viability (A-427; first compound 0.01581 µM): 0.188
- relative viability (A-427; first compound 0.05 µM): 0.207
- relative viability (A-427; first compound 0.5 µM): 0.153
- relative viability (NCI-H727; first compound 0.005 µM): 0.451
- relative viability (NCI-H727; first compound 0.01581 µM): 0.479
- relative viability (NCI-H727; first compound 0.05 µM): 0.486
- relative viability (NCI-H727; first compound 0.1581 µM): 0.406
- relative viability (NCI-H727; first compound 0.5 µM): 0.429
